Target: human active recombinant p38α-6His tagged (Homo sapiens, UniProt Q16539)
Test: P38 Alpha Enzyme Assay (AlphaScreen, biotinylated-ATF2 substrate);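 also: 0.5 nM final p38α, reaction started with ATP and run 45 min at 37 °C, phospho-ATF2 read by antibody-based AlphaScreen, background wells quenched with EDTA before ATP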
Type: biochemical
Settings: p38 alpha enzyme inhibition; means of replicate determinations; 4 h pre-incubation at 37° C.; SD of assay 0.2-0.3 log units

Chain of human active recombinant p38α-6His tagged (Q16539 whole entry): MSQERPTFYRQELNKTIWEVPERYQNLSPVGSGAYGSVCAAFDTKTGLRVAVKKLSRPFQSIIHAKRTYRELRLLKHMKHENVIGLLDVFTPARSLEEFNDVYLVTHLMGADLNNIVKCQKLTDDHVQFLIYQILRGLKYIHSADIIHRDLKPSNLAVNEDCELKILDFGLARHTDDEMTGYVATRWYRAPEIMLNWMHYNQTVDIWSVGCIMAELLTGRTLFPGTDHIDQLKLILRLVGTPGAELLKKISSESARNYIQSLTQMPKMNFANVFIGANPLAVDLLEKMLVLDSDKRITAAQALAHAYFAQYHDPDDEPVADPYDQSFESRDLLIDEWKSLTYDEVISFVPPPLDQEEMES

| Compound | pIC50 |
| --- | --- |
| Cc1ccc(C(=O)NC2CC2)cc1-n1ccnc(N[C@@H](c2ccccc2)[C@@H](C)CN2CCC(F)(F)CC2)c1=O [Example 175, N-Cyclopropyl-3-[3-[[(1R,2S)-3-(4,4-difluoro-1-piperidinyl)-2-methyl-1-phenylpropyl]amino]-2-oxo-1(2H)-pyrazinyl]-4-methyl-benzamide] | 9 |
| Cc1ccc(C(=O)NC2CC2)cc1-n1ccnc(N[C@@H](c2ccccc2)[C@@H](C)CN2CCC(O)CC2)c1=O [Example 152, N-Cyclopropyl-3-[3-[[(1R,2S)-3-(4-hydroxy-1-piperidinyl)-2-methyl-1-phenylpropyl]amino]-2-oxo-1(2H)-pyrazinyl]-4-methyl-benzamide] | 8.9 |
| CNCCCOc1ccccc1C(C)(C)Nc1nccn(-c2cc(C(=O)NC3CC3)ccc2C)c1=O [Example 164, N-Cyclopropyl-4-methyl-3-[3-[[1-methyl-1-[2-[3-(methylamino)propoxy]phenyl]ethyl]amino]-2-oxo-1(2H)-pyrazinyl]-benzamide] | 9.6 |
| Cc1ccc(C(=O)NC2CC2)cc1-n1ccnc(NCc2cccc(F)c2)c1=O [Example 22, N-Cyclopropyl-3-[3-[[(3-fluorophenyl)methyl]amino]-2-oxo-1(2H)-pyrazinyl]-4-methyl-benzamide] | 7 |
| Cc1ccc(C(=O)NC2CC2)cc1-n1ccnc(NCc2ccccc2F)c1=O [Example 1, N-Cyclopropyl-3-[3-(2-fluoro-benzylamino)-2-oxo-2H-pyrazin-1-yl]-4-methyl-benzamide] | 7.4 |
| Cc1ccc(C(=O)NC2CC2)cc1-n1ccnc(Oc2ccccc2)c1=O [Example 116, N-Cyclopropyl-4-methyl-3-(2-oxo-3-phenoxy-1(2H)-pyrazinyl)-benzamide] | 6.4 |
| COCCCNc1nccn(-c2cc(C(=O)NC3CC3)ccc2C)c1=O [Example 8, N-Cyclopropyl-3-[3-[(3-methoxypropyl)amino]-2-oxo-1(2H)-pyrazinyl]-4-methyl-benzamide] | 6.4 |
| CONC(=O)c1ccc(C)c(-n2ccnc(N3CCNC(c4ccccc4)C3)c2=O)c1 (centres unmarked) [Example 126, N-Methoxy-4-methyl-3-[2-oxo-3-(3-phenyl-1-piperazinyl)-1(2H)-pyrazinyl]-benzamide] | 8.1 |
| Cc1ccc(C(=O)NC2CC2)cc1-n1ccnc(NCc2cc(C(F)(F)F)cc(C(F)(F)F)c2)c1=O [Example 99, 3-[3-[[[3,5-Bis(trifluoromethyl)phenyl]methyl]amino]-2-oxo-1(2H)-pyrazinyl]-N-cyclopropyl-4-methyl-benzamide] | 7.1 |
| Cc1ccc(C(=O)NC2CC2)cc1-n1ccnc(N[C@H]2C[C@@H]2c2ccccc2)c1=O [Example 47, N-Cyclopropyl-4-methyl-3-[2-oxo-3-[[(1S,2R)-2-phenylcyclopropyl]amino]-1(2H)-pyrazinyl]-benzamide] | 7.2 |
| Cc1ccc(C(=O)NC2CC2)cc1-n1ccnc(N2CCOC(c3ccccc3)C2)c1=O (centres unmarked) [Example 67, N-Cyclopropyl-4-methyl-3-[2-oxo-3-(2-phenyl-4-morpholinyl)-1(2H)-pyrazinyl]-benzamide] | 6.6 |
| Cc1ccc(C(=O)NC2CC2)cc1-n1ccnc(NC(C)(C)Cc2ccc(F)cc2)c1=O [Example 62, N-Cyclopropyl-3-[3-[[2-(4-fluorophenyl)-1,1-dimethylethyl]amino]-2-oxo-1(2H)-pyrazinyl]-4-methyl-benzamide] | 7 |
| CONC(=O)c1ccc(C)c(-n2ccnc(C3CCCC3)c2=O)c1 [Example 127, 3-(3-cyclopentyl-2-oxo-1(2H)-pyrazinyl)-N-methoxy-4-methyl-benzamide] | 7.3 |
| Cc1ccc(C(=O)NC2CC2)cc1-n1ccnc(N[C@H](C)c2cccc3ccccc23)c1=O [Example 84, N-Cyclopropyl-4-methyl-3-[3-[[(1R)-1-(1-naphthalenyl)ethyl]amino]-2-oxo-1(2H)-pyrazinyl]-benzamide] | 8.6 |
| Cc1ccc(C(=O)NC2CC2)cc1-n1ccnc(NCc2cccc(CN3CCN(C)CC3)c2)c1=O [Example 40, N-Cyclopropyl-4-methyl-3-[3-[[[3-[(4-methyl-1-piperazinyl)methyl]phenyl]methyl]amino]-2-oxo-1(2H)-pyrazinyl]-benzamide] | 6.7 |

The remaining lines, values ahead:

| pIC50 | Compound |
| --- | --- |
| 10.4 | CCNC[C@@H](O)COc1ccccc1C(C)(C)Nc1nccn(-c2cc(C(=O)NC3CC3)cc(F)c2C)c1=O [Example 308, N-Cyclopropyl-3-[3-{[1-(2-{[(2R)-3-(ethylamino)-2-hydroxypropyl]oxy}phenyl)-1-methylethyl]amino}-2-oxopyrazin-1(2H)-yl]-5-fluoro-4-methylbenzamide] |
| 10.3 | CCNC[C@@H](O)COc1ccccc1C1(Nc2nccn(-c3cc(C(=O)NC4CC4)ccc3C)c2=O)CC1 [Example 300, N-Cyclopropyl-3-[3-{[1-(2-{[(2R)-3-(ethylamino)-2-hydroxypropyl]oxy}phenyl)cyclopropyl]amino}-2-oxopyrazin-1(2H)-yl]-4-methylbenzamide] |
| 9.4 | Cc1ccc(C(=O)NC2CC2)cc1-n1ccnc(NC(C)(C)c2ccccc2OC2CCNC2)c1=O (centres unmarked) [Example 216, N-Cyclopropyl-4-methyl-3-[3-[[1-methyl-1-[2-(3-pyrrolidinyloxy)phenyl]ethyl]amino]-2-oxo-1(2H)-pyrazinyl]-benzamide] |
| 9.6 | Cc1ccc(C(=O)NC2CC2)cc1-n1ccnc(N[C@@H](c2ccccc2)[C@@H](C)CN2CCN(C3CCS(=O)(=O)C3)CC2)c1=O (stereo partly drawn) [Example 191, N-Cyclopropyl-4-methyl-3-[3-[[(1R,2S)-2-methyl-1-phenyl-3-[4-(tetrahydro-1,1-dioxido-3-thienyl)-1-piperazinyl]propyl]amino]-2-oxo-1(2H)-pyrazinyl]-benzamide] |
| 10.1 | CNCCOc1ccccc1C1(Nc2nccn(-c3cc(C(=O)NOC)ccc3C)c2=O)CC1 [Example 317, N-Methoxy-4-methyl-3-{3-[(1-{2-[2-(methylamino)ethoxy]phenyl}cyclopropyl)amino]-2-oxopyrazin-1(2H)-yl}benzamide] |
| 9.7 | Cc1ccc(C(=O)NC2CC2)cc1-n1ccnc(NC2(c3ccccc3OCCN3CCCN(C)CC3)CC2)c1=O [Example 235, N-Cyclopropyl-3-[3-[[1-[2-[2-(hexahydro-4-methyl-1H-1,4-diazepin-1-yl)ethoxy]phenyl]cyclopropyl]amino]-2-oxo-1(2H)-pyrazinyl]-4-methyl-benzamide] |
| 10.5 | COCCNCCOc1ccccc1C1(Nc2nccn(-c3cc(C(=O)NC4CC4)cc(F)c3C)c2=O)CC1 [Example 261, N-Cyclopropyl-3-fluoro-5-[3-[[1-[2-[2-[(2-methoxyethyl)amino]ethoxy]phenyl]cyclopropyl]amino]-2-oxo-1(2H)-pyrazinyl]-4-methyl-benzamide] |
| 9.1 | Cc1ccc(C(=O)NC2CC2)cc1-n1ccnc(NC(C)(C)c2ccccc2OCCCN2CCN(C)CC2)c1=O [Example 208, N-Cyclopropyl-4-methyl-3-[3-[[1-methyl-1-[2-[3-(4-methyl-1-piperazinyl)propoxy]phenyl]ethyl]amino]-2-oxo-1(2H)-pyrazinyl]-benzamide] |
| 9.5 | CCNCCOc1ccccc1C(CC)(CC)Nc1nccn(-c2cc(C(=O)NC3CC3)ccc2C)c1=O [Example 267, N-Cyclopropyl-3-[3-[[1-ethyl-1-[2-[2-(ethylamino)ethoxy]phenyl]propyl]amino]-2-oxo-1(2H)-pyrazinyl]-4-methyl-benzamide] |
| 9.5 | CNCCSc1ccccc1C(C)(C)Nc1nccn(-c2cc(C(=O)NC3CC3)cc(F)c2C)c1=O [Example 320, N-Cyclopropyl-3-fluoro-4-methyl-5-[3-{[1-methyl-1-(2-{[2-(methylamino)ethyl]sulfanyl}phenyl)ethyl]amino}-2-oxopyrazin-1(2H)-yl]benzamide] |
| 8.2 | CCNCCOc1ccccc1C1(Nc2nccn(-c3cc(C(=O)NC4CC4)c(F)cc3C)c2=O)CC1 [Example 318, N-cyclopropyl-5-{3-[(1-{2-[2-(ethylamino)ethoxy]phenyl}cyclopropyl)amino]-2-oxopyrazin-1(2H)-yl}-2-fluoro-4-methylbenzamide] |
| 9.4 | Cc1ccc(C(=O)NC2CC2)cc1-n1ccnc(NC2(c3ccccc3OCCN3CCc4c(ncn4C)C3)CC2)c1=O [Example 297, N-Cyclopropyl-4-methyl-3-{3-[(1-{2-[2-(1-methyl-1,4,6,7-tetrahydro-5H-imidazo[4,5-c]pyridin-5-yl)ethoxy]phenyl}cyclopropyl)amino]-2-oxopyrazin-1(2H)-yl}benzamide] |
| 8.1 | CNCCCOc1ccccc1C1CCCN1c1nccn(-c2cc(C(=O)NC3CC3)ccc2C)c1=O (centres unmarked) [Example 324, N-Cyclopropyl-4-methyl-3-[3-(2-{2-[3-(methylamino)propoxy]phenyl}pyrrolidin-1-yl)-2-oxopyrazin-1(2H)-yl]benzamide] |
| 9.8 | Cc1ccc(C(=O)NC2CC2)cc1-n1ccnc(NC2(c3ccccc3OCCN3CCC[C@H]3C)CC2)c1=O [Example 247, N-Cyclopropyl-4-methyl-3-[3-[[1-[2-[2-[(2R)-2-methyl-1-pyrrolidinyl]ethoxy]phenyl]cyclopropyl]amino]-2-oxo-1(2H)-pyrazinyl]-benzamide] |
| 10.1 | Cc1ccc(C(=O)NC2CC2)cc1-n1ccnc(NC2(c3ccccc3OCCN)CC2)c1=O [Example 251, 3-[3-[[1-[2-(2-aminoethoxy)phenyl]cyclopropyl]amino]-2-oxo-1(2H)-pyrazinyl]-N-cyclopropyl-4-methyl-benzamide] |
| 9.9 | CNCCOc1ccc(F)cc1C1(Nc2nccn(-c3cc(C(=O)NC4CC4)ccc3C)c2=O)CC1 [Example 278, N-Cyclopropyl-3-[3-[[1-[5-fluoro-2-[2-(methylamino)ethoxy]phenyl]cyclopropyl]amino]-2-oxo-1(2H)-pyrazinyl]-4-methyl-benzamide] |
| 8.5 | COc1ccccc1[C@H](Nc1nccn(-c2cc(C(=O)NC3CC3)ccc2C)c1=O)[C@@H](C)CN1CCCC1 [Example 277, N-Cyclopropyl-3-[3-[[(1R,2S)-1-(2-methoxyphenyl)-2-methyl-3-(1-pyrrolidinyl)propyl]amino]-2-oxo-1(2H)-pyrazinyl]-4-methyl-benzamide] |
